Data from patent publication US9107894B2, “Formulation to improve gastrointestinal function” (University of Florida Research Foundation, Inc., priority 2007, dated 2015).

Experiments:
Caco-2 cells = assay: Poly (I:C) induced IL-8 production in differentiated Caco-2 cells (ELISA); assay type: cell-based, human
Experimental: In order to determine whether DHA has an effect on inducers of inflammation other than TNFα, stimulation of another Toll-like receptor was evaluated. Polyriboinosinic polyribocytidylic acid [poly(I:C)] is a synthetic double-stranded RNA that is used experimentally to model viral infections. It has recently been identified as one of the critical stimuli for toll like receptor 3 (TLR3). The effects of n-3 PUFA on viral induced inflammation in intestinal epithelia have not been reported.
Docosahexaenoic acid (DHA, 22:6 n-3) was used as n-3 PUFA and linoleic acid (LA, 18:2 n-6) as n-6 PUFA. Differentiated Caco-2 cells were pretreated with various doses of DHA or LA for 24 hours. The cells were then treated with poly (I: C) 50 ug/ml for another 24 hours. The culture medium was collected to measure the IL-8 production by ELISA. The first experiment determined the effect of Poly (I: C) on stimulation of IL-8, a major pro-inflammatory chemokine. Poly (I:C) increased IL-8 production by 10 fold.

[1] = test system: developing rat small intestine; assay: Pup-in-a-cup rat model: growth, villus size and tight junction proteins under protein deprivation; assay type: in vivo; conditions: for villus height and area: 6-7 d old pups fed rat milk substitute for 6 d; for growth of pups: 6-7 d old pups fed rat milk substitute via gastrostomy tube for 6 d
Source text: Using the “pup-in-a-cup” rat model, protein deprivation and supplementation with GLN or GLU in the developing rat small intestine were examined. Four groups of 6-7 d old pups were fed via a gastrostomy tube providing 100% or 25% protein (relative to mother fed rats) rat milk substitute (RMS) with and without additional GLN or glutamate (GLU) for 6 d. […] Villus size is a major component of absorptive capability. […] The tight junction proteins play an integral role in paracellular permeability of the intestinal barrier, and two of these, claudin and occludin were evaluated using Western blotting.

myeloperoxidase (MPO) = assay: Intestinal myeloperoxidase activity in gastrostomy fed, LPS treated rats; assay type: in vivo, rat
Source text: An approximate 6-fold elevation of intestinal myeloperoxidase (MPO) activity in the gastrostomy fed, LPS treated rats was decreased by GLN and Glu by 92% and 54%, respectively.

CINC peptide = CINC peptide in gastrostomy fed (pup-in-a-cup), LPS treated rat pups; assay type: in vivo; conditions: for decrease of intestinal CINC peptide: intestine
Source text: Using the “pup-in-a-cup” rat model, protein deprivation and supplementation with GLN or GLU in the developing rat small intestine were examined. Four groups of 6-7 d old pups were fed via a gastrostomy tube providing 100% or 25% protein (relative to mother fed rats) rat milk substitute (RMS) with and without additional GLN or glutamate (GLU) for 6 d. Pups receiving the 100% protein RMS experienced better growth than the 3 groups of pups receiving the 25% protein RMS+/−GLN/GLU supplementation.
Cytokine induced neutrophil chemoattractant (CINC) is a rodent chemokine that performs neutrophil chemoattractant functions similar to IL-8 in the human. Large quantities of this proinflammatory mediator can be detrimental.
Intestinal CINC peptide in the LPS treated pups provided 100% and 25% protein was elevated about 13 fold compared to the mother reared pups. GLN and GlU decreased intestinal CINC peptide by 73 and 80%, respectively.

CINC mRNA = CINC mRNA in small intestine by RT-PCR, protein deprived LPS treated rat pups; assay type: in vivo; conditions: 25% protein-fed, densitometry
Experimental: Cytokine induced neutrophil chemoattractant (CINC) is a rodent chemokine that performs neutrophil chemoattractant functions similar to IL-8 in the human. Large quantities of this proinflammatory mediator can be detrimental. […] To clarify the effects of diets on the CINC mRNA in small intestine, RT-PCR was performed.

IEC-6 = assay: Proliferation of rat intestinal crypt cells (IEC-6) in the absence of GLN; assay type: cell-based; conditions: GLN synthetase inhibited cells, all treatment doses
Experimental: Studies were conducted to evaluate whether glutamate, a mixture of nucleotide monophosphates, arginine, or glucosamine could support proliferation of rat intestinal crypt cells (IEC-6) in the absence of GLN.

H4 cells = assay: TNFα-induced IL-8 production in H4 cells; assay type: cell-based, human; conditions: H4, 24 h pretreatment, TNF-α 1 μg/L for 24 h
Experimental: EPA and DHA were used as n-3 PUFA and linoleic acid (LA, 18:2 n-6) as n-6 PUFA. The H4 and Caco-2 cells were pretreated with different doses of EPA, DHA and LA separately and in different combinations for 24 hours. Then TNF-α (1 μg/L for H4, 50 μg/L for Caco-2 cells) was added to cell culture medium and the cells were incubated for another 24 hours. The lower dose used in the H4 cell line reflects their exquisite sensitivity to inflammatory stimuli.
The effects of different doses of fatty acids on TNFα-induced IL-8 production were evaluated and are seen in FIGS. 2A-B.

BBDP rats = assay: Mortality due to diabetes in BBDP rats; assay type: in vivo, rat

For `CC/C=C\C/C=C\C/C=C\C/C=C\C/C=C\C/C=C\CCC(=O)O` [DHA, docosahexaenoic acid], the “decrease of poly (I:C)-induced IL-8 production” value (Caco-2 cells; 100 μM, 24 h pretreatment, poly (I:C) 50 ug/ml 24 h) was 75%.
With `NC(=O)CC[C@H](N)C(=O)O` [GLN, glutamine] the “villus height and area” value [1] was “did not differ”, the growth of pups [1] was “neither GLN nor GLU alone can rescue the effects of protein deprivation” and the “decrease of intestinal myeloperoxidase (MPO) activity” value (myeloperoxidase (MPO)) was 92%. For the same molecule, the “decrease of intestinal CINC peptide” value (CINC peptide) was 73%, the “plasma CINC peptide” value (CINC peptide) was “decreased plasma CINC peptide” and the “CINC mRNA expression in small intestine” value (CINC mRNA) was “decreased CINC mRNA to a level similar to mother-fed animals”.
`N[C@@H](CCC(=O)O)C(=O)O` [Glu, glutamate] was tested, and the “villus height and area” value [1] was “did not differ”, the growth of pups [1] was “neither GLN nor GLU alone can rescue the effects of protein deprivation” and the “decrease of intestinal myeloperoxidase (MPO) activity” value (myeloperoxidase (MPO)) was 54%. For the same molecule, the “decrease of intestinal CINC peptide” value (CINC peptide) was 80%, the “plasma CINC peptide” value (CINC peptide) was “but not Glu decreased plasma CINC peptide” and the proliferation (IEC-6) was “decrease in proliferation compared with cells treated with GLN”. For the same molecule, the “CINC mRNA expression in small intestine” value (CINC mRNA) was “did not show the same effect as GLN”.
For `CCCCC/C=C\C/C=C\CCCCCCCC(=O)O` [LA, linoleic acid], the “poly (I:C)-induced IL-8 production” value (Caco-2 cells; doses of 50 and 100 μM, 24 h pretreatment) was “did not significantly reduce IL-8 production” and the “effect on TNF-α induced IL-8 production” value (H4 cells) was “greater inflammatory effects on IL-8 production in H4 than in Caco-2 cells”.
`CCCC(=O)[O-].[Na+]` [NaB] was tested, and the “mortality due to diabetes” value (BBDP rats) was “decrease mortality due to diabetes”.
In the case of `N=C(N)NCCC[C@H](N)C(=O)O` [arginine], the proliferation (IEC-6) is reported as “decrease in proliferation compared with cells treated with GLN”.
For `N[C@H]1C(O)O[C@H](CO)[C@@H](O)[C@@H]1O` (some centres unmarked) [glucosamine], the proliferation (IEC-6) was “decrease in proliferation compared with cells treated with GLN”.
For “Polyriboinosinic polyribocytidylic acid [Poly (I:C)]”, the “increase of IL-8 production” value (Caco-2 cells; poly (I:C) 50 ug/ml, 24 hours) was 10 fold.
